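Compound exposure: 48 hours, 5 concentrations, 96-well plates. GI50 marks 50% less growth.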 Activity calls are given as the source filed them. No stated cut-off is given here; in the data, active = GI50 up to about 1.1 µM and inactive = higher.
What was measured:
Test in all cases: DTP human tumour cell line panel, 48 h
HCT-116 = tested on: HCT-116
NCI-H522 = tested on: NCI-H522
K562 = tested on: K562
MCF7 = tested on: MCF7
NCI-H23 = tested on: NCI-H23
DU-145 = tested on: DU-145
Malme-3M = tested on: Malme-3M
A549 = tested on: A549
RXF 393 = tested on: RXF 393
HL-60 = tested on: HL-60
NCI/ADR-RES = tested on: NCI/ADR-RES
SN12C = tested on: SN12C
SF-268 = tested on: SF-268
SK-OV-3 = tested on: SK-OV-3
SK-MEL-28 = tested on: SK-MEL-28
OVCAR-5 = tested on: OVCAR-5
NCI-H460 = tested on: NCI-H460
SF-539 = tested on: SF-539
MDA-MB-231 = tested on: MDA-MB-231
T47D = tested on: T47D

Row | SMILES | GI50 (HCT-116) | GI50 (NCI-H522) | GI50 (K562) | GI50 (MCF7) | GI50 (NCI-H23) | GI50 (DU-145) | GI50 (Malme-3M) | GI50 (A549) | GI50 (RXF 393) | GI50 (HL-60) | GI50 (NCI/ADR-RES) | GI50 (SN12C) | GI50 (SF-268) | GI50 (SK-OV-3) | GI50 (SK-MEL-28) | GI50 (OVCAR-5) | GI50 (NCI-H460) | GI50 (SF-539) | GI50 (MDA-MB-231) | GI50 (T47D)
1 | CCCC(=O)[O-].[Na+] [SODIUM BUTYRATE] | 1390 µM (inactive) | 3440 µM (inactive) | 1000 µM (inactive) | 1000 µM (inactive) | 3970 µM (inactive) | 2370 µM (inactive) | 543 µM (inactive) | 7830 µM (inactive) | 8390 µM (inactive) | 721 µM (inactive) | 843 µM (inactive) | 5310 µM (inactive) | 8280 µM (inactive) | 3030 µM (inactive) | 4170 µM (inactive) | 7980 µM (inactive) | 2390 µM (inactive) | 3000 µM (inactive) | 5710 µM (inactive) | 2420 µM (inactive)
2 | Nc1nc2c(c(-c3cccc(Cl)c3)n1)COC/C2=C\c1cccc(Cl)c1 | > 100 µM (inactive) | > 100 µM (inactive) | > 100 µM (inactive) | > 100 µM (inactive) | > 100 µM (inactive) | 80.2 µM (inactive) | 37.9 µM (inactive) |  | > 100 µM (inactive) | > 100 µM (inactive) | > 100 µM (inactive) | > 100 µM (inactive) | > 100 µM (inactive) | > 100 µM (inactive) | > 100 µM (inactive) | > 100 µM (inactive) | > 100 µM (inactive) | > 100 µM (inactive) | 52.7 µM (inactive) | 82.6 µM (inactive)
3 | [O-][s+]1c2c(Cc3ccccc3)c(Cc3ccccc3)c1CCc1cccc(c1)CC2 | 8.99 µM (inactive) | 11.3 µM (inactive) | 11.2 µM (inactive) | 11.1 µM (inactive) | 12.7 µM (inactive) | 15.8 µM (inactive) | 17.1 µM (inactive) | 13.9 µM (inactive) | 3.86 µM (inactive) | 16.9 µM (inactive) | 14.4 µM (inactive) | 16.2 µM (inactive) | 15.6 µM (inactive) | 10.7 µM (inactive) | 20.7 µM (inactive) | 15.3 µM (inactive) | 13.4 µM (inactive) | 18.7 µM (inactive) | 15.9 µM (inactive) | 6.68 µM (inactive)
4 | CC(C)N(CCCNc1c2ccccc2nc2cccc([N+](=O)[O-])c12)C(C)C | < 0.01 µM (active) | 0.0104 µM (active) | 0.0195 µM (active) | 0.0114 µM (active) | < 0.0108 µM (active) | < 0.01 µM (active) | < 0.0214 µM (active) | < 0.0104 µM (active) | 0.0153 µM (active) | < 0.018 µM (active) | 0.986 µM (active) | < 0.0165 µM (active) | < 0.0224 µM (active) | < 0.0326 µM (active) | < 0.01 µM (active) | < 0.0191 µM (active) | < 0.01 µM (active) | < 0.0216 µM (active) | < 0.01 µM (active) | < 0.0269 µM (active)
5 | C[C@]12c3c4cc(NC(=O)C(=O)NCc5ccc(-c6ccccn6)nc5)cc3Oc3cc(NC(=O)C(=O)NCc5ccc(-c6ccccn6)nc5)cc(c31)OC1C=C(NC(=O)C(=O)NCc3ccc(-c5ccccn5)nc3)C=C(O4)C12 (stereo not given in full) | 29.2 µM (inactive) | 66.5 µM (inactive) | 84.9 µM (inactive) | 33.7 µM (inactive) |  | 18.8 µM (inactive) |  | 86.5 µM (inactive) | > 100 µM (inactive) | 14.6 µM (inactive) | 49.7 µM (inactive) | 40.9 µM (inactive) | 16.8 µM (inactive) | 17 µM (inactive) | 95.1 µM (inactive) | > 100 µM (inactive) | 17.1 µM (inactive) | 29.3 µM (inactive) | 9.59 µM (inactive) | 26.7 µM (inactive)
6 | COc1cccc(NC(=O)CC(=O)N2N=C(C)C(/N=N/c3ccc(S(=O)(=O)CCOS(=O)(=O)O)cc3)C2=O)c1 (stereo not given) | 3.22 µM (inactive) | 0.796 µM (active) | 2.18 µM (inactive) | 2.09 µM (inactive) | 4.69 µM (inactive) | 14.8 µM (inactive) | 11.1 µM (inactive) | 18.9 µM (inactive) | 4.06 µM (inactive) | 1.66 µM (inactive) | 4.2 µM (inactive) | 5.05 µM (inactive) | 7.82 µM (inactive) |  | 4.09 µM (inactive) | 29.3 µM (inactive) | 4.49 µM (inactive) | 12.5 µM (inactive) | 4.63 µM (inactive) | 11.4 µM (inactive)
7 | CCOC(=O)C(NCc1ccccc1)(NC(=O)c1ccccc1)C(F)(F)F (stereo not given) | > 100 µM (inactive) | 35.6 µM (inactive) | 60.1 µM (inactive) | > 100 µM (inactive) | > 100 µM (inactive) | > 100 µM (inactive) | > 100 µM (inactive) | > 100 µM (inactive) | 64.7 µM (inactive) | 29 µM (inactive) | 43.3 µM (inactive) | > 100 µM (inactive) | > 100 µM (inactive) | > 100 µM (inactive) | > 100 µM (inactive) | > 100 µM (inactive) |  | > 100 µM (inactive) | 21.4 µM (inactive) | 38.5 µM (inactive)

Reference: ChEMBL document CHEMBL1201862, “PubChem BioAssay data set” (2004)
